Experimental data reported in US20150105252A1, “SUBSTITUTED PYRAZOLES AS HERBICIDES” (E I DU PONT DE NEMOURS AND COMPANY, priority 2013, published 2015).

System: Russian thistle
Assay: Test C preemergence
Format: in vivo, Salsola kali
Conditions: for Plant response rating (scale of 0 to 100), Russian Thistle: Preemergence, 250 g ai/ha; for Russian Thistle plant response rating / Plant response rating, Russian Thistle: preemergence; for Plant response rating, Russian Thistle: 62 g ai/ha, scale 0 to 100, 0 = no effect, 100 = complete control
Source text: Seeds of plant species selected from blackgrass (Alopecurus myosuroides), ryegrass, Italian (Italian ryegrass, Lolium multiflorum), wheat (winter wheat, Triticum aestivum), galium (catchweed bedstraw, Galium aparine), corn (Zea mays), crabgrass, large (large crabgrass, Digitaria sanguinalis), foxtail, giant (giant foxtail, Setaria faberii), johnsongrass (Sorghum halepense), lambsquarters (Chenopodium album), morningglory (Ipomoea coccinea), nutsedge, yellow (yellow nutsedge, Cyperus esculentus), pigweed (redroot pigweed, Amaranthus retroflexus), ragweed (common ragweed, Ambrosia elation), soybean (Glycine max), barnyardgrass (Echinochloa crus-galli), oilseed rape (Brassica napus), waterhemp (common waterhemp, Amaranthus rudis), oat, wild (wild oat, Avena fatua), kochia (Kochia scoparia), Surinam grass (Brachiaria decumbens), foxtail, green (green foxtail, Setaria viridis), goosegrass (Eleusine indica), bromegrass, downy (downy bromegrass, Bromus tectorum), nightshade (eastern black nightshade, Solanum ptycanthum), cocklebur (common cocklebur, Xanthium strumarium), cupgrass, woolly (woolly cupgrass, Eriochloa villosa), bermudagrass (Cynodon dactylon), sunflower, (common oilseed sunflower, Helianthus annuus), Russian thistle (Salsola kali), and velvetleaf (Abutilon theophrasti) were planted into a blend of loam soil and sand and treated preemergence with test chemicals formulated in a non-phytotoxic solvent mixture which included a surfactant.
At the same time, plants selected from these crop and weed species and also chickweed (common chickweed, Stellaria media), canarygrass (littleseed canarygrass, Phalaris minor), and deadnettle (henbit deadnettle, Lamium amplexicaule), were planted in pots containing Redi-Earth® planting medium (Scotts Company, 14111 Scottslawn Road, Marysville, Ohio 43041) comprising spaghnum peat moss, vermiculite, wetting agent and starter nutrients and treated with postemergence applications of test chemicals formulated in the same manner. Plants ranged in height from 2 to 18 cm (1- to 4-leaf stage) for postemergence treatments. Treated plants and controls were maintained in a greenhouse for 13 to 15 days, after which time all species were compared to controls and visually evaluated. Plant response ratings, summarized in Table C, are based on a scale of 0 to 100 where 0 is no effect and 100 is complete control. A dash (-) response means no test result.

[1] = 31 g ai/ha, scale 0 to 100 (0 no effect, 100 complete control), 13 to 15 days
[2] = 125 g ai/ha, scale 0 to 100, 0 is no effect, 100 is complete control

| Structure (SMILES) | Plant response rating (scale of 0 to 100), Russian Thistle | Russian Thistle plant response rating [1] | Plant response rating, Russian Thistle (13 to 15 days) | Russian Thistle plant response rating [2] |
| --- | --- | --- | --- | --- |
| CCc1cc(C(=O)NOC(C)C)nn1Cc1cccc(OC(F)(F)F)c1 [Compound 70] | 80 | 65 | 75 | 75 |
| CCONC(=O)c1cc(CC)n(Cc2cccc(OC(F)(F)F)c2)n1 [Compound 72] | 95 | 5 | 90 | 95 |
